For 24 compounds, Ki results are on record in patent US9029370B2, “Substituted benzamide derivatives” (Hoffmann-La Roche Inc., priority 2011, dated 2015).

Experiment [1] has as its target rat TAAR1 (Rattus norvegicus (Rat), UniProt Q923Y9). In words: Radioligand binding assay on rat TAAR1. The settings on record: rat TAAR1, HEK-293 membranes; second value of the pair (line below); read-out: Ki (μM) mouse/rat. The protocol: (§1) For the construction of expression plasmids the coding sequences of human, rat and mouse TAAR 1 were amplified from genomic DNA essentially as described by Lindemann et al.. The Expand High Fidelity PCR System (Roche Diagnostics) was used with 1.5 mM Mg^2+ and purified PCR products were cloned into pCR2.1-TOPO cloning vector (Invitrogen) following the instructions of the manufacturer. PCR products were subcloned into the pIRESneo2 vector (BD Clontech, Palo Alto, Calif.), and expression vectors were sequence verified before introduction in cell lines.
(§2) HEK293 cells (ATCC # CRL-1573) were cultured essentially as described by Lindemann et al. (2005). For the generation of stably transfected cell lines HEK293 cells were transfected with the pIRESneo2 expression plasmids containing the TAAR coding sequences (described above) with Lipofectamine 2000 (Invitrogen) according to the instructions of the manufacturer, and 24 hrs post transfection the culture medium was supplemented with 1 mg/ml G418 (Sigma, Buchs, Switzerland). After a culture period of about 10 d clones were isolated, expanded and tested for responsiveness to trace amines (all compounds purchased from Sigma) with the cAMP Biotrak Enzyme immunoassay (EIA) System (Amersham) following the non-acetylation EIA procedure provided by the manufacturer.
Radioligand Binding Assay on Rat TAAR1
(§3) Membrane Preparation and Radioligand Binding.
(§4) HEK-293 cells stably expressing rat TAAR1 were maintained at 37° C. and 5% CO2 in DMEM high glucose medium, containing fetal calf serum (10%, heat inactivated for 30 min at 56° C.), penicillin/streptomycin (1%), and 375 μg/ml geneticin (Gibco). Cells were released from culture flasks using trypsin/EDTA, harvested, washed twice with ice-cold PBS (without Ca^2+ and Mg^2+), pelleted at 1′000 rpm for 5 min at 4° C., frozen and stored at −80° C. […] The homogenate was centrifuged at 48′000×g for 30 min at 4° C. Subsequently, the supernatant was removed and discarded, and the pellet resuspended in 20 ml HEPES-NaOH (20 mM, pH 7.4) containing 0.1 mM EDTA using the Polytron (20 s at 14′000 rpm). This procedure was repeated and the final pellet resuspended in HEPES-NaOH containing 0.1 mM EDTA and homogenized using the Polytron. Typically, aliquots of 2 ml membrane portions were stored at −80° C. With each new membrane batch the dissociation constant (Kd) was determined via a saturation curve. […] Nonspecific binding was defined as the amount of ^3[H]-(S)-4-[(ethyl-phenyl-amino)-methyl]-4,5-dihydro-oxazol-2-ylamine bound in the presence of 10 μM unlabeled ligand. All compounds were tested at a broad range of concentrations (10 pM to 10 μM) in duplicates. […] The 96 deep well plates were incubated for 1 hr at 4° C. Incubations were terminated by rapid filtration through Unifilter-96 plates (Packard Instrument Company) and glass filters GF/C (Perkin Elmer) presoaked for 1 hr in polyethylenimine (0.3%) and washed 3 times with 1 ml of cold binding buffer. After addition of 45 μl of Microscint 40 (PerkinElmer) the Unifilter-96 plate was sealed and after 1 hr the ratioactivity counted using a TopCount Microplate Scintillation Counter (Packard Instrument Company).

The target of experiment [2] is mouse TAAR1 (Mus musculus (Mouse), UniProt Q923Y8). In words: Radioligand binding assay on mouse TAAR1. The settings on record: mouse TAAR1, HEK-293 membranes; first value of the pair (before the slash); read-out: Ki (μM) mouse/rat. As to the method: as §1, §2
Chain of mouse TAAR1 (Q923Y8 whole entry): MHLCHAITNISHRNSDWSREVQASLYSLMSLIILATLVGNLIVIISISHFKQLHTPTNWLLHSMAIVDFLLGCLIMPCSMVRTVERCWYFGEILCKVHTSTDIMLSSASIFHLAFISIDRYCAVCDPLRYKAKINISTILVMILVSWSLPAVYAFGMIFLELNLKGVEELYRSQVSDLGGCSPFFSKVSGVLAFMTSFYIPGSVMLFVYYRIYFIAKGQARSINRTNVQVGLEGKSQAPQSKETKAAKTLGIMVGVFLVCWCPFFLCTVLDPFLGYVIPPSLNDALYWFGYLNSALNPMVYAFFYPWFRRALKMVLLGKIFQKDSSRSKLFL
Radioligand Binding Assay on Mouse TAAR1
as §3
as §4, with “expressing mouse” for “expressing rat”

Chain of rat TAAR1 (Q923Y9 whole entry): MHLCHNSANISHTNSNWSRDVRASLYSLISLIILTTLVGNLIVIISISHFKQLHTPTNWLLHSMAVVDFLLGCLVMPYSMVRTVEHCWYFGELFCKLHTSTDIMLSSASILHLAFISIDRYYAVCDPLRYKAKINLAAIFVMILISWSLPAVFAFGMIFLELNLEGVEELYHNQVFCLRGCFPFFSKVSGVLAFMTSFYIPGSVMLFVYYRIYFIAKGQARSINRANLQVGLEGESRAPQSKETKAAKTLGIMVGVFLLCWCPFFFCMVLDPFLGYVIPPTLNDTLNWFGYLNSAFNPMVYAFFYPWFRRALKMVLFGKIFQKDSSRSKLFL

Consider `O=C(Nc1ccc(Cl)nc1)Nc1ccc(C2CNCCO2)cc1Cl` (racemic) [Example 14, (RS)-1-(2-Chloro-4-morpholin-2-yl-phenyl)-3-(6-chloro-pyridin-3-yl)-urea], for which the Ki in experiment [1] amounted to 0.0039 µM.
In the case of `N#Cc1cc(C2CNCCO2)ccc1NC(=O)c1ccn(-c2ccc(F)cc2)n1` (racemic) [Example 28, (RS)—N-(2-Cyano-4-(morpholin-2-yl)phenyl)-1-(4-fluorophenyl)-1H-pyrazole-3-carboxamide], the Ki in experiment [2] was 0.014 µM.
For the compound `N#Cc1cccc(NC(=O)Nc2ccc(C3CNCCO3)cc2C#N)c1` (racemic) [Example 33, (RS)-1-(2-Cyano-4-morpholin-2-yl-phenyl)-3-(3-cyano-phenyl)-urea], in experiment [1], the Ki worked out at 1.51 µM.
`O=C(Nc1ccc(Cl)nc1)Nc1ccc(C2CCNC2)cc1Cl` (racemic) [Example 38, (RS)-1-(6-Chloro-pyridin-3-yl)-3-(2-chloro-4-pyrrolidin-3-yl-phenyl)-urea]: the results for the Ki in experiment [2] and in experiment [1] were 0.0029 µM and 0.0191 µM, respectively.
For `O=C(Nc1ccc(Cl)nc1)Nc1ccc(C2CCCNC2)cc1Cl` (racemic) [Example 41] the same measures were 0.0015 µM and 0.009 µM.
The matching figures for `O=C(Nc1ccc(C2CCCNC2)cc1Cl)c1ccc(Cl)nc1` (racemic) [Example 43, (RS)-6-Chloro-N-(2-chloro-4-piperidin-3-yl-phenyl)-nicotinamide]: 0.0164 µM and 0.367 µM.
Regarding `O=C(Nc1ccc([C@@H]2CNCCO2)cc1F)c1n[nH]c2cc(F)ccc12` [Example 1, 6-Fluoro-1H-indazole-3-carboxylic acid ((R)-2-fluoro-4-morpholin-2-yl-phenyl)-amide], the values for the Ki in experiment [2] and in experiment [1] were 0.001 µM and 0.0051 µM, respectively.
With `O=C(Nc1ccc([C@H]2CNCCO2)cc1F)c1n[nH]c2cc(F)ccc12` [Example 2, 6-Fluoro-1H-indazole-3-carboxylic acid ((S)-2-fluoro-4-morpholin-2-yl-phenyl)-amide], the figures for the Ki in experiment [2] and in experiment [1] were 0.0012 µM and 0.0009 µM, respectively.
Regarding `N#Cc1cccc(NC(=O)Nc2ccc([C@@H]3CNCCO3)cc2F)c1` [Example 3, 1-(3-Cyano-phenyl)-3-((R)-2-fluoro-4-morpholin-2-yl-phenyl)-urea], the Ki in experiment [2] was 0.0016 µM; in experiment [1], 0.0015 µM.
Turning to `N#Cc1cccc(NC(=O)Nc2ccc([C@H]3CNCCO3)cc2F)c1` [Example 4, 1-(3-Cyano-phenyl)-3-((S)-2-fluoro-4-morpholin-2-yl-phenyl)-urea], the Ki in experiment [2] amounted to 0.0017 µM; in experiment [1] it was 0.0028 µM.
As for `O=C(Nc1ccc(Cl)nc1)Nc1ccc([C@@H]2CNCCO2)cc1F` [Example 8, 1-(6-Chloro-pyridin-3-yl)-3-((R)-2-fluoro-4-morpholin-2-yl-phenyl)-urea], the Ki came to 0.0026 µM in experiment [2] and 0.0039 µM in experiment [1].
In the case of `O=C(Nc1ccc(Cl)nc1)Nc1ccc([C@H]2CNCCO2)cc1F` [Example 9, 1-(6-Chloro-pyridin-3-yl)-3-((S)-2-fluoro-4-morpholin-2-yl-phenyl)-urea], the Ki is 0.0017 µM in experiment [2] and 0.0105 µM in experiment [1].
With `O=C(Nc1ccc(C(F)(F)F)nc1)Nc1ccc([C@@H]2CNCCO2)cc1F` [Example 10, 1-((R)-2-Fluoro-4-morpholin-2-yl-phenyl)-3-(6-trifluoromethyl-pyridin-3-yl)-urea], the Ki in experiment [2] and in experiment [1] was 0.0033 µM each time.
`O=C(Nc1ccc(C(F)(F)F)nc1)Nc1ccc([C@H]2CNCCO2)cc1F` [Example 11, 1-((S)-2-Fluoro-4-morpholin-2-yl-phenyl)-3-(6-trifluoromethyl-pyridin-3-yl)-urea]: the figures for the Ki in experiment [2] and in experiment [1] were 0.0035 µM and 0.0095 µM, respectively.
The matching figures for `O=C(Nc1ccc([C@@H]2CNCCO2)cc1F)c1ccn(-c2ccc(F)cc2)n1` [Example 12, 1-(4-Fluoro-phenyl)-1H-pyrazole-3-carboxylic acid ((R)-2-fluoro-4-morpholin-2-yl-phenyl)-amide]: 0.0026 µM and 0.0006 µM.
For the compound `O=C(Nc1ccc([C@H]2CNCCO2)cc1F)c1ccn(-c2ccc(F)cc2)n1` [Example 13, 1-(4-Fluoro-phenyl)-1H-pyrazole-3-carboxylic acid ((S)-2-fluoro-4-morpholin-2-yl-phenyl)-amide], the Ki in experiment [2] was 0.0011 µM; in experiment [1] it was 0.0024 µM.
Consider `N#Cc1cccc(CNC(=O)Nc2ccc([C@@H]3CNCCO3)cc2F)c1` [Example 15, 1-(3-Cyano-benzyl)-3-((R)-2-fluoro-4-morpholin-2-yl-phenyl)-urea], for which the figures for the Ki in experiment [2] and in experiment [1] were 0.0074 µM and 0.0544 µM, respectively.
Consider `Cn1nc(-c2ccccc2)cc1C(=O)Nc1ccc([C@H]2CNCCO2)cc1F` [Example 17, 2-Methyl-5-phenyl-2H-pyrazole-3-carboxylic acid ((S)-2-fluoro-4-morpholin-2-yl-phenyl)-amide], for which the Ki in experiment [2] came out at 0.0151 µM; in experiment [1], 0.0128 µM.
Turning to `O=C(Nc1ccc(Cl)nc1)Nc1ccc([C@H]2CNCCO2)cc1Cl` [Example 19, (S)-1-(2-Chloro-4-morpholin-2-yl-phenyl)-3-(6-chloro-pyridin-3-yl)-urea], the Ki in experiment [1] is 0.0034 µM.
Regarding `O=C(Nc1ccc(Cl)nc1)Nc1ccc([C@@H]2CNCCO2)cc1Cl` [Example 20, (R)-1-(2-Chloro-4-morpholin-2-yl-phenyl)-3-(6-chloro-pyridin-3-yl)-urea], the Ki in experiment [1] was found to be 0.005 µM.
Take `O=C(Nc1ccc([C@@H]2CNCCO2)cc1F)c1cnn(-c2ccc(F)cc2)c1` [Example 21, (R)—N-(2-fluoro-4-(morpholin-2-yl)phenyl)-1-(4-fluorophenyl)-1H-pyrazole-4-carboxamide]: the figures for the Ki in experiment [2] and in experiment [1] were 0.0032 µM and 0.0022 µM, respectively.
Consider `O=C(Nc1ccc([C@H]2CNCCO2)cc1F)c1cnn(-c2ccc(F)cc2)c1` [Example 22, (S)—N-(2-fluoro-4-(morpholin-2-yl)phenyl)-1-(4-fluorophenyl)-1H-pyrazole-4-carboxamide], for which the Ki in experiment [2] was 0.002 µM; in experiment [1], 0.0036 µM.
For `Cn1nc(-c2ccccc2)cc1C(=O)Nc1ccc([C@@H]2CNCCO2)cc1F` [Example 23, 2-Methyl-5-phenyl-2H-pyrazole-3-carboxylic acid ((R)-2-fluoro-4-morpholin-2-yl-phenyl)-amide], the Ki in experiment [2] came to 0.0254 µM; in experiment [1], 0.0033 µM.
The matching figures for `COc1cc(C(=O)Nc2ccc([C@@H]3CNCCO3)cc2F)cc(Cl)n1` [Example 24, 2-Chloro-N—((R)-2-fluoro-4-morpholin-2-yl-phenyl)-6-methoxy-isonicotinamide]: 0.0032 µM and 0.007 µM.
